Experimental data published in patent publication US20080312301A1, “Substituted N-Benzo[D]Isoxazol-3-Yl-Amine Compounds as Inhibitors of Mglur5, Serotonin (5-Ht) and Noradrenaline Receptors, and Uses Thereof” (Gruenenthal GmbH, priority 2005, published 2008).

target: T1, mGluR5 receptor (Sus scrofa, UniProt I3LUI7); assay: Affinity for the mGluR5 receptor: displacement of 3[H]-MPEP binding in pig brain homogenate; details: 10 μM compound, 5 nM 3[H]-MPEP
T1 construct: 450 μg of protein from brain homogenate are incubated with 5 nM^3[H]-MPEP; from tissue; host or cells: pig brain hemispheres without medulla, cerebellum and pons
T1 sequence (I3LUI7 19-1212): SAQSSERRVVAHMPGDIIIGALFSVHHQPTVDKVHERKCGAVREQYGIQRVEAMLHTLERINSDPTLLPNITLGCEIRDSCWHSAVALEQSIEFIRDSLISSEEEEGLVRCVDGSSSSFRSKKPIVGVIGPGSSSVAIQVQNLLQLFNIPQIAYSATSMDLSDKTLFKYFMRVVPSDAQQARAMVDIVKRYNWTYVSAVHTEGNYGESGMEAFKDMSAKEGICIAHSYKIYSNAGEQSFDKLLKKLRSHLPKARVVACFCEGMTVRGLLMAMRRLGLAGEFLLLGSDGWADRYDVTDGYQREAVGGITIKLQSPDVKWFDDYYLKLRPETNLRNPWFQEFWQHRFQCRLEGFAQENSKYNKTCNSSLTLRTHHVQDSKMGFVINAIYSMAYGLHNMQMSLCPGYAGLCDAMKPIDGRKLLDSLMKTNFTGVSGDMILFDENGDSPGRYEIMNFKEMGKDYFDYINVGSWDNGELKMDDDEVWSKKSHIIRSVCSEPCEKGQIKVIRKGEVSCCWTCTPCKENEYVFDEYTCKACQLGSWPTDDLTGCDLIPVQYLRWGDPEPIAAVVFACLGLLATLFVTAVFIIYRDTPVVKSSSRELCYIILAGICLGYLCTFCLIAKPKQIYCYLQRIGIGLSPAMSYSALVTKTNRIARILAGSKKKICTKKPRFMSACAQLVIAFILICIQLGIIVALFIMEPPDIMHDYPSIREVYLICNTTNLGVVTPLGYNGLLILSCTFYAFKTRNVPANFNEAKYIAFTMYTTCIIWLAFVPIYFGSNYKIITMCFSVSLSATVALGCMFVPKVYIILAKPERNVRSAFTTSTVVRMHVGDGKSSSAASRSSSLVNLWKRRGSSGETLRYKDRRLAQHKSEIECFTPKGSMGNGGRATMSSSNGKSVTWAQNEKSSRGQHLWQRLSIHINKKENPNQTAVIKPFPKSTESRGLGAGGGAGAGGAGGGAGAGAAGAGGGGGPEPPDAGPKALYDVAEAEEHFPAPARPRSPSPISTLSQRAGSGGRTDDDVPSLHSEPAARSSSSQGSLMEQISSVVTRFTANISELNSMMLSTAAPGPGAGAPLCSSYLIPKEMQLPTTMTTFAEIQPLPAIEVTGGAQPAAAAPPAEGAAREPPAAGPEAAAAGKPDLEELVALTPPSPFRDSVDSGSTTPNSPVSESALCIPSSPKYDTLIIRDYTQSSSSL
Experimental: II. Method for Determining the Affinity for the mGluR5 Receptor
In each case 450 μg of protein from brain homogenate are incubated with 5 nM^3[H]-MPEP (Tocris, order No. R1212) (MPEP=2-methyl-6-[…]) and the compounds to be investigated (10 μM in the assay) in buffer (as above) in 250 μl incubation mixtures in 96-well microtiter plates at room temperature for 60 min.
The filter plates were then dried at 55° C. for 60 min.

| Compound | mGluR5 receptor inhibition of the 3[H]-MPEP binding in % (10 μM) [%] | inhibition at 10 µM [%] |
| --- | --- | --- |
| Cc1cccc(C(=O)Nc2noc3ccc(C)cc23)c1 [Example 123, 3-methyl-N-(5-methylbenzo[d]isoxazol-3-yl)benzamide] | 89.70 |  |
| Cc1ccc2onc(NC(=O)c3ccccc3)c2c1 [Example 118, N-(5-methylbenzo[d]isoxazol-3-yl)benzamide] |  | 69 |
| Cc1cccc(C(=O)Nc2noc3cccc(Cl)c23)c1 [Example 153, N-(4-chlorobenzo[d]isoxazol-3-yl)-3-methylbenzamide] |  | 63.8 |
| Cc1cccc(C(=O)Nc2noc3ccc(C)cc23)c1 [Example 143, 3-methyl-N-(5-methylbenzo[d]isoxazol-3-yl)benzamide] | 44.66 |  |
| CCCC(C)C(=O)Nc1noc2cccc(OC)c12 (stereo not shown) [Example 161, N-(4-methoxybenzo[d]isoxazol-3-yl)-2-methylpentanamide] |  | 38.5 |
| Cc1ccccc1C(=O)Nc1noc2c(F)cccc12 [Example 99, N-(7-fluorobenzo[d]isoxazol-3-yl)-2-methylbenzamide] |  | 43 |
| O=C(Nc1noc2cccc(F)c12)c1ccccc1 [Example 147, N-(4-fluorobenzo[d]isoxazol-3-yl)benzamide] |  | 31.4 |
| O=C(Nc1noc2ccccc12)c1cccnc1 [Example 90, N-benzo[d]isoxazol-3-ylnicotinamide] |  | 50.3 |
| O=C(Nc1noc2cc(Cl)ccc12)c1cc(F)c(Cl)cc1Cl [Example 111, 2,4-dichloro-N-(6-chlorobenzo[d]isoxazol-3-yl)-5-fluorobenzamide] |  | 43 |
| CN(C)c1cccc2onc(NC(=O)c3ccc(Cl)c(Cl)c3)c12 [Example 170, 3,4-dichloro-N-(4-dimethylaminobenzo[d]isoxazol-3-yl)benzamide] |  | 38 |
| CCC(C)C(=O)Nc1noc2cccc(OCC(F)(F)F)c12 (stereo not shown) [Example 163, 2-methyl-N-[4-(2,2,2-trifluoroethoxy)benzo[d]isoxazol-3-yl]butyramide] |  | 36 |
| O=C(Nc1noc2c(F)cccc12)c1ccccc1 [Example 95, N-(7-fluorobenzo[d]isoxazol-3-yl)benzamide] |  | 45.8 |
| CC(C)(C)CC(=O)Nc1noc2cccc(OCC(F)(F)F)c12 [Example 164, 3,3-dimethyl-N-[4-(2,2,2-trifluoroethoxy)benzo[d]isoxazol-3-yl]butyramide] |  | 33.4 |
| CC(C)(C)CC(=O)Nc1noc2cc(Br)ccc12 [Example 117, N-(6-bromobenzo[d]isoxazol-3-yl)-3,3-dimethylbutyramide] |  | 30.8 |
| CCC(C)C(=O)Nc1noc2ccc(Br)cc12 (stereo not shown) [Example 135, N-(5-bromobenzo[d]isoxazol-3-yl)-2-methyl butyramide] | 40.00 |  |
| CN(C)c1cccc2onc(NC(=O)C34CC5CC(CC(C5)C3)C4)c12 [Example 172, adamantane-1-(4-dimethylaminobenzo[d]isoxazol-3-yl)carboxamide] | 51.40 |  |

| Compound | mGluR5 receptor inhibition of the 3[H]-MPEP binding in % (10 μM) [%] | inhibition at 10 µM [%] |
| --- | --- | --- |
| COc1cccc2onc(NC(=O)c3ccccc3C)c12 [Example 156, N-(4-methoxybenzo[d]isoxazol-3-yl)-2-methylbenzamide] |  | 33.8 |
| Nc1c(F)c(F)c2c(NC(=O)c3ccc(F)cc3F)noc2c1F [Example 177, N-(6-amino-4,5,7-trifluorobenzo[d]isoxazol-3-yl)-2,4-difluorobenzamide] |  | 30.8 |
| O=C(Nc1noc2cccc(Cl)c12)C12CC3CC(CC(C3)C1)C2 [Example 151, adamantane-1-(4-chlorobenzo[d]isoxazol-3-yl)carboxamide] | 74.05 |  |
| CCCc1ccc(C(=O)Nc2noc3cccc(OCc4ccc(C)cc4)c23)cc1 [Example 168, N-[4-(4-methylbenzyloxy)benzo[d]isoxazol-3-yl]-4-propylbenzamide] |  | 32.2 |
| Cc1cc(C(=O)Nc2noc3ccccc23)no1 [Example 91, 5-methylisoxazole-3-benzo[d]isoxazol-3-ylcarboxamide] | 35.00 |  |
| CC(C)(C)c1ccc(C(=O)Nc2noc3cc(Cl)ccc23)cc1 [Example 109, 4-tert-butyl-N-(6-chlorobenzo[d]isoxazol-3-yl)benzamide] |  | 35.2 |
| O=C(Nc1noc2c(F)cccc12)c1ccccc1Cl [Example 93, 2-chloro-N-(7-fluorobenzo[d]isoxazol-3-yl)benzamide] |  | 35.4 |
| CN(C)c1cccc2onc(NC(=O)c3cccc([N+](=O)[O-])c3)c12 [Example 171, N-(4-dimethylaminobenzo[d]isoxazol-3-yl)-3-nitrobenzamide] |  | 42.3 |
| Cc1cc(C(=O)Nc2noc3cccc(OCC(F)(F)F)c23)c(C)o1 [Example 166, 2,5-dimethylfuran-3-[4-(2,2,2-trifluoroethoxy)benzo[d]isoxazol-3-yl]carboxamide] | 32.39 |  |
| CCC(C(=O)Nc1noc2ccc(C)cc12)c1ccccc1 (stereo not shown) [Example 145, N-(5-methylbenzo[d]isoxazol-3-yl)-2-phenylbutyramide] |  | 43.5 |
| CCCCC(CC)C(=O)Nc1noc2ccccc12 (stereo not shown) [Example 85, N-benzo[d]isoxazol-3-yl-2-ethylhexanamide] |  | 63.2 |
| O=C(Nc1noc2cc(F)ccc12)c1cccc2ccccc12 [Example 101, naphthalene-1-(6-fluorobenzo[d]isoxazol-3-yl)carboxamide] | 48.99 |  |
| CCCCC(CC)C(=O)Nc1noc2cccc(OC)c12 (stereo not shown) [Example 159, N-(4-methoxybenzo[d]isoxazol-3-yl)-2-ethylhexanamide] |  | 43.2 |
| CC(C)(C)CC(=O)Nc1noc2cccc(Cl)c12 [Example 155, N-(4-chlorobenzo[d]isoxazol-3-yl)-3,3-dimethylbutyramide] |  | 52.4 |
| O=C(Nc1noc2cc(Cl)ccc12)c1ccccc1Cl [Example 108, 2-chloro-N-(6-chlorobenzo[d]isoxazol-3-yl)benzamide] |  | 34.7 |

Results, then the compound that gave them:

| mGluR5 receptor inhibition of the 3[H]-MPEP binding in % (10 μM) [%] | inhibition at 10 µM [%] | Compound |
| --- | --- | --- |
| 42.52 |  | O=C(Nc1noc2ccc(F)cc12)c1ccc(F)cc1F [Example 131, 2,4-difluoro-N-(5-fluorobenzo[d]isoxazol-3-yl)benzamide] |
|  | 36.1 | COc1cccc2onc(NC(=O)c3ccccc3C(F)(F)F)c12 [Example 158, N-(4-methoxybenzo[d]isoxazol-3-yl)-2-trifluoromethylbenzamide] |
|  | 36 | O=C(Nc1noc2cc(Cl)ccc12)c1ccc(F)cc1C(F)(F)F [Example 110, N-(6-chlorobenzo[d]isoxazol-3-yl)-4-fluoro-2-trifluoromethylbenzamide] |
|  | 44.6 | CC(C)(C)c1ccc(C(=O)Nc2noc3ccc(F)cc23)cc1 [Example 104, 4-tert-butyl-N-(5-fluorobenzo[d]isoxazol-3-yl)benzamide] |
|  | 33.1 | O=C(Nc1noc2ccc(Br)cc12)c1cc(F)ccc1C(F)(F)F [Example 141, N-(5-bromobenzo[d]isoxazol-3-yl)-5-fluoro-2-trifluoromethylbenzamide] |
|  | 32.2 | Cc1ccc2onc(NC(=O)c3ccc(F)cc3)c2c1 [Example 121, 4-fluoro-N-(5-methylbenzo[d]isoxazol-3-yl)benzamide] |
|  | 37.9 | Cc1ccc2onc(NC(=O)c3ccc(Br)cc3)c2c1 [Example 119, 4-bromo-N-(5-methylbenzo[d]isoxazol-3-yl)benzamide] |
|  | 38.4 | O=C(Nc1noc2ccc(Br)cc12)c1ccccc1Br [Example 140, 2-bromo-N-(5-bromobenzo[d]isoxazol-3-yl)benzamide] |
|  | 33.3 | O=C(Nc1noc2cc(F)ccc12)c1cc(F)cc(F)c1 [Example 100, 3,5-difluoro-N-(6-fluorobenzo[d]isoxazol-3-yl)benzamide] |
|  | 37.8 | COc1cccc(C(=O)Nc2noc3ccc(Br)cc23)c1 [Example 142, N-(5-bromobenzo[d]isoxazol-3-yl)-3-methoxybenzamide] |
|  | 53.8 | O=C(Nc1noc2ccc(F)cc12)c1ccc(F)cc1F [Example 105, 2,4-difluoro-N-(5-fluorobenzo[d]isoxazol-3-yl)benzamide] |
|  | 47.9 | Cc1ccc2onc(NC(=O)c3ccccc3Cl)c2c1 [Example 120, 2-chloro-N-(5-methylbenzo[d]isoxazol-3-yl)benzamide] |
| 43.11 |  | Cc1cc(C(=O)Nc2noc3ccc(Br)cc23)c(C)o1 [Example 134, 2,5-dimethylfuran-3-(5-bromobenzo[d]isoxazol-3-yl)carboxamide] |
|  | 32 | Cc1ccc(C(=O)Nc2noc3ccc(Br)cc23)cc1 [Example 138, N-(5-bromobenzo[d]isoxazol-3-yl)-4-methylbenzamide] |
|  | 35.8 | O=C(Nc1noc2cc(Br)ccc12)c1ccc(Cl)c(Cl)c1 [Example 115, N-(6-bromobenzo[d]isoxazol-3-yl)-3,4-dichlorobenzamide] |
|  | 42.1 | CCCc1ccc(C(=O)Nc2noc3ccc(F)cc23)cc1 [Example 107, N-(5-fluorobenzo[d]isoxazol-3-yl)-4-propylbenzamide] |
| 37.71 |  | O=C(Nc1noc2cc(Br)ccc12)c1cccs1 [Example 116, thiophene-2-(6-bromobenzo[d]isoxazol-3-yl)carboxamide] |
|  | 41.5 | COc1cccc(OC)c1C(=O)Nc1noc2ccc(Br)cc12 [Example 139, N-(5-bromobenzo[d]isoxazol-3-yl)-2,6-dimethoxybenzamide] |
